Reference: patent publication US9296710B2, “Bicyclo (3.1.0) hexane-2, 6-dicarboxylic acid derivatives as mGlu2 receptor agonist” (Eli Lilly and Company, priority 2011, dated 2016)
Where a name gives a salt, the structure may show the parent alone.

Key:
PepT1 = target: T1, PepT1 (Homo sapiens, UniProt P46059); experiment: In Vitro PepT1 GlySar Inhibition Screen; type: cell-based; conditions: for GlySar uptake inhibition, mean values ± standard deviation (controls): negative and positive controls run in parallel, n=18-19; for inhibition at 5000 µM: prodrug at 5 mM, pH 6.0, PepT1 transiently transfected HeLa cells, 5 μM [14C]Gly-Sar and 20 μM cold Gly-Sar, read-out: Mean GlySar Uptake Inhibition %
T1 construct: expressed in transfected cells; host or cells: HeLa cells (ATCC), transient transfection with FUGENE6
T1 sequence (P46059 1-708): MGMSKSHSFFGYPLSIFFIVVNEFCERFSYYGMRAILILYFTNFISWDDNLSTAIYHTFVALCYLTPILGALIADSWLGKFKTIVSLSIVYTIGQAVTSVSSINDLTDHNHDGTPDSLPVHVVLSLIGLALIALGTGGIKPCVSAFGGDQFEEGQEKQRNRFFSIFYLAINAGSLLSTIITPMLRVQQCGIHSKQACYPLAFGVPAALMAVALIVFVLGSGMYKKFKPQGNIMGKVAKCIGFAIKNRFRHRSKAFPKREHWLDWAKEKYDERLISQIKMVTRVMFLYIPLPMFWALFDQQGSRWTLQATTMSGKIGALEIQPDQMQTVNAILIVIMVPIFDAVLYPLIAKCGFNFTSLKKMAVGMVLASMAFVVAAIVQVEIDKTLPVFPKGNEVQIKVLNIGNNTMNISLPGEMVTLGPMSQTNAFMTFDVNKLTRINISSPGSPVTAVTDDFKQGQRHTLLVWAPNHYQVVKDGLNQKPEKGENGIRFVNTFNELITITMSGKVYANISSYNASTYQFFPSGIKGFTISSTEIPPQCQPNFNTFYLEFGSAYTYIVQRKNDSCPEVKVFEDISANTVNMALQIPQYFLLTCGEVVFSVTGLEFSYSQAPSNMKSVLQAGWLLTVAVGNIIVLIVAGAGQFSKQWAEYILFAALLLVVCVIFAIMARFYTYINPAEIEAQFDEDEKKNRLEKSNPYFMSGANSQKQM
Method: PepT1 assays are established to examine the ability of the amino acid prodrug compounds to interact with the intestinal absorption transporter PepT1.
HeLa cells, derived from human cancer cells, (American Type Culture Collection) are grown in Hyclone Medium (Invitrogen, Cat# SH30243) containing 10% fetal bovine serum (FBS), 0.1 mM non essential amino acids (NEAA), and 100 units/mL penicillin with 100 μg/mL streptomycin at 37° C. in a 5% CO2 humidified atmosphere. The cell line is used for up to 40 passages and then discarded. Frozen cells in 1 mL vials are thawed in water bath for 1-2 minutes and added to 5 mL of cell medium at 37° C. Each of the T-flasks is provided with 8.5 mL of the fresh medium and 1.5 mL of the cell stock. Cells are passaged twice during a week. […] Each new flask receives a combination of 8.5 mL of fresh medium and 1.5 mL of cell stock, in order to obtain 1:6 cell dilution. Cells are incubated at 37° C., until ready for the uptake study.
Cells that are 70-80% confluent in the T-flasks are plated 1 day prior to the transfection procedure. The flask with the cell stock is treated with PBS-EDTA and trypsin to detach the cells, and transfection medium is used from this point. Transfection medium consists of Dulbecco's Modified Eagle Medium (DMEM)+NEAA. To each well, 0.5 mL of the cell mixture is added (1.3×10^5 is the desired cell concentration) and the cells are incubated at 37° C. overnight. Twenty four hours before the assay, cells are transfected with PEPT1. Transfection mixture is prepared by mixing 600 μL of serum free transfection medium, 18 μL of FUGENE6® (Roche Diagnostics), and 11 μg of the PepT1 DNA. The transfection reagent-DNA complex is incubated for 20 minutes and 24 μL of the reagent-DNA complex is added to each well.
Inhibition of PEPT1-mediated [glycyl-1-2-^14C]Glyclysarcosine (GlySar) uptake activity is measured in the cells cultured in the 24-well plates 24-hours post transfection as previously published (Zhang et al. 2004. J. Pharm. Exper Ther. 310:437-445). To measure the ability of a compound of the present invention to inhibit the uptake of [^14C]Gly-Sar, prodrug compounds are incubated with 80 to 90% confluent PepT1 transiently transfected HeLa cells at 5 mM in pH 6.0 uptake medium in the presence of 5 μM [^14C]Gly-Sar (Moravek Biochemicals) and 20 μM cold Gly-Sar. Uptake media consists of 140 mM NaCl, 5.4 mM KCl, 1.8 mM CaCl2, 0.8 mM MgSO4, 5 mM Glucose, 25 mM tris(hydroxymethyl)aminomethane buffer (TRIS). The solution is then brought to pH 6.0 using 2-(N-morpholino)ethanesulfonic acid. The incubation volume is 500 μL and is performed at room temperature for 3 minutes. To stop the uptake at the conclusion of the incubation time, the uptake media is aspirated off of the cell monolayer and 500 μL of ice cold PBS added to the well. The cells are washed 3 times with 500 μL of room temperature PBS without Ca^+2 and Mg^+2. The cells are then lysed with 300 μL of 1% TRITON® X100 H2O solution. A 200 μL aliquot is removed and radioactivity is determined by liquid scintillation counting to measure the [^14C]Gly-Sar present in each of the incubation wells. A no inhibitor control is established and the percent inhibition of each prodrug is calculated with respect to this control.

[1] = tested on: PCP-induced hyperlocomotor activity in mice; experiment: Reversal of Phencyclidine (PCP)-Induced Hyperlocomotor Activity in Mice; type: in vivo, mouse; conditions: Mus musculus, i.p. administration, 30 minutes prior to 7.5 mg/kg PCP
Text: This assay for Reversal of Phencyclidine (PCP)-Induced Hyperlocomotor Activity in Mice is run substantially as the Reversal of Phencyclidine (PCP)-Induced Hyperlocomotor Activity in Rats assay provided above, using mice instead of rats and with the changes noted below.
Motor activity is monitored by placing individual male, ICR (CD-1), (Harlan, Indianapolis, Ind.) mice in transparent, plastic shoe-box cages of the dimensions 45×25×20 cm, with 0.5 cm depth of wood chips as bedding, and plastic lid on top of the cage. Motor monitors (Kinder Scientific) consist of a rectangular rack of 12 photobeams arranged in an 8×4 formation, (or a high density grouping of 22 in a 15×7 pattern) at a height of 2.5 cm. The shoe box cage is placed inside of these racks, with the racks on a 3 foot high tabletop in an isolated room. A compound of the present invention is dosed (intraperitoneal route, non-prodrug) usually within a range of 0.3-30 mg/kg; though higher doses may be used, 30 minutes prior to a 7.5 mg/kg challenge dose of phencyclidine (PCP). On the test day, mice are placed in the test cage and allowed to acclimate for 45 minutes prior to PCP challenge; mice are monitored for an additional 60 minutes following PCP administration.
Power analyses have determined that 7-8 mice per group are needed to have appropriate statistical power for detecting treatment differences (power=0.8).

human mGlu2 receptor = target: T2, human mGlu2 receptor (Homo sapiens, UniProt Q14416); experiment: Human mGlu2 Agonist FLIPR Assay; type: cell-based; conditions: for Emax: percent stimulation relative to maximal glutamate response (100 μM glutamate), read-out: Relative % Efficacy
T2 construct: expressed in transfected cells; host or cells: AV-12 cells (Syrian hamster fibroblasts), co-transfected with rat EAAT1 and Galpha15
Text: AV-12 cell lines, derived from Syrian Hamster fibroblasts and stably expressing the human mGlu2 receptor and co-transfected with the rat glutamate transporter EAAT 1 (Excitatory Amino Acid Transporter 1) and the Gα15 subunit, are used for these studies. The expression of Gα15 allows Gi-coupled receptors to signal through the phospholipase C pathway, resulting in the ability to measure receptor activation by a fluorometric calcium response assay. The cell lines are maintained by culturing in Dulbecco's Modified Eagle's Medium (DMEM) with high glucose and pyridoxine hydrochloride supplemented with 5% dialyzed fetal bovine serum, 1 mM sodium pyruvate, 10 mM HEPES [4-(2-hydroxyethyl)-1-piperazineethanesulfonic acid], 1 mM of L-glutamine, and 5 μg/mL blasticidin (all media are purchased from Invitrogen). Confluent cultures are passaged biweekly using an enzyme-free dissociation solution (Chemicon S-004-B).
Intracellular calcium levels are monitored before and after the addition of compounds using a Fluorometric Imaging Plate Reader (FLIPR®, Molecular Devices). The assay buffer is comprised of Hank's Buffered Salt Solution (HBSS; Sigma) supplemented with 20 mM HEPES. […] The dye solution is removed and replaced with fresh assay buffer (50 μL per well). […] Results are analyzed using PRISM® v4.03 (GraphPad Software). […] Exemplified compounds of the present invention are solubilized as 10 mM stocks in 0.1N NaOH and stored at −20 C. They are diluted through a three-fold dilution series into assay buffer. After taking an initial 5-sec fluorescent read on the FLIPR® instrument, a compound of the present invention is added to the cell plate (50 μL per well). Data are collected every second for the first 30 seconds and then every 3 seconds for a total of 90 seconds in order to detect agonist activity. The maximal response is defined as that induced by ECmax (100 μM glutamate). The compound effect is measured as maximal minus minimal peak heights in relative fluorescent units (RFUs) corrected for basal fluorescence measured in the absence of glutamate. Determinations are carried out using single plates. Agonist effects are quantified as percent stimulation induced by compound alone relative to the maximal glutamate response. All data are calculated as relative EC50 values using a four-parameter logistic curve fitting program (ACTIVITY BASE® v5.3.1.22).

[2] = tested on: immobility in forced swim test in mice; experiment: Forced Swim Test in Rodents (mice); type: in vivo, mouse; conditions: intraperitoneal dosing 60 min prior to testing
Method: In this assay, mechanisms with purported antidepressant-like activity decrease immobility in a brief inescapable forced swim episode.
The forced-swim test was conducted in mice (male, NIH-Swiss mice, 20-25 g, Harlan Sprague-Dawley, Indianapolis, Ind.). Mice are placed in clear plastic cylinders (diameter 10 cm; height: 25 cm) filled to 6 cm with 22-25° C. water for six min. The duration of immobility is recorded during the last 4 min of a six-minute trial. The compounds of Examples 2, 3, 8, 11, and 12 are tested following intraperitoneal dosing, 60 min prior to testing. Imipramine is used as a positive control for these studies. Compounds are formulated in a water vehicle, with minimal NaOH added. The amount of time spent immobile (defined as movements only necessary to keep the subject's head above water) is the dependent measure and recorded by an observer blinded to the drug treatment of the subjects. Data are analyzed by post-hoc Dunnett's test with alpha level set at 0.05.

T2 sequence (Q14416 19-872): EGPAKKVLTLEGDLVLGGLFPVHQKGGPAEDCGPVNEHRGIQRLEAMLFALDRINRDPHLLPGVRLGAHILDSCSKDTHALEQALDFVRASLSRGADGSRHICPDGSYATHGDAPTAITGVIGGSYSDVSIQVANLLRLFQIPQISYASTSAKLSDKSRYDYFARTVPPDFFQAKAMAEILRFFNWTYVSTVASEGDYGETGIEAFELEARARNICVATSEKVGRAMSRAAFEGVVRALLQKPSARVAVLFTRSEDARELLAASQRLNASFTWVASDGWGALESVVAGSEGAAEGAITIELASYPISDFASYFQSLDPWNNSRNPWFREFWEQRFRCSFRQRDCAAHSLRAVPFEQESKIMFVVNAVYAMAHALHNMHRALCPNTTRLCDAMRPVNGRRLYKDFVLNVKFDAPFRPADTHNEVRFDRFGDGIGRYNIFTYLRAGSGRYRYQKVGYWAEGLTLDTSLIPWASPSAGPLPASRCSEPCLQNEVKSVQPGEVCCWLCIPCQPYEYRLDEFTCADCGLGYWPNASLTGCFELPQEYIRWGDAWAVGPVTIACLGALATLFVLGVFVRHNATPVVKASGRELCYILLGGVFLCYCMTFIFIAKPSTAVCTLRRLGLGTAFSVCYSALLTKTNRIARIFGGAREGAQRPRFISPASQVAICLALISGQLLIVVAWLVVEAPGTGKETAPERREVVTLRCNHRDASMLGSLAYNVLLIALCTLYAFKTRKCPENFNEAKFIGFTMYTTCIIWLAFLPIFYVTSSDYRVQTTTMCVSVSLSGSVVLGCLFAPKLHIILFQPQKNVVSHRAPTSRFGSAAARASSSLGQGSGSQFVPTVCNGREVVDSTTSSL

SMILES	Emax (human mGlu2 receptor) [%]	inhibition at 5000 µM (PepT1) [%]	ED50 [1] [mg/kg]	further results
CC1=C(C(=O)O)N2C(=O)[C@@H](NC(=O)[C@H](N)c3ccc(O)cc3)[C@H]2SC1 [Cefadroxil, reference compound]				GlySar uptake inhibition, mean values ± standard deviation (controls) (PepT1): 53.2±13.2%
Cl.N[C@@]1(C(=O)O)C[C@@H](Sc2cn[nH]n2)[C@H]2[C@H](C(=O)O)[C@H]21 [Example 1, (1R,2S,4R,5R,6R)-2-Amino-4-(2H-[1,2,3]triazol-4-ylsulfanyl)-bicyclo[3.1.0]hexane-2,6-dicarboxylic acid hydrochloride]	92.6		18.4	EC50 (human mGlu2 receptor; hMGLUR2 FLIPR assay, AV-12 cells expressing human mGlu2, calcium response, read-out: Relative EC50): 46 nM
Cl.N[C@@]1(C(=O)O)C[C@@H](Sc2nnc(C(F)(F)F)[nH]2)[C@H]2[C@H](C(=O)O)[C@H]21 [Example 2, (1R,2S,4R,5R,6R)-2-Amino-4-(5-trifluoromethyl-1H-[1,2,4]triazol-3-ylsulfanyl)-bicyclo[3.1.0]hexane-2,6-dicarboxylic acid hydrochloride]	78.5		14.4	
Nc1nnc(S[C@@H]2C[C@@](N)(C(=O)O)[C@@H]3[C@@H](C(=O)O)[C@@H]32)[nH]1 [Example 3, (1R,2S,4R,5R,6R)-2-Amino-4-(5-amino-[1,3,4]triazol-2-ylsulfanyl)-bicyclo[3.1.0]hexane-2,6-dicarboxylic acid]			17.1	ED60 (60% of the amount of immobility relative to vehicle controls) [2]: < 3 mg/kg
N[C@@]1(C(=O)O)C[C@H](Sc2n[nH]c(C(F)(F)F)n2)[C@H]2[C@H](C(=O)O)[C@H]21 [Example 12, (1R,2S,4S,5R,6R)-2-Amino-4-[[5-(trifluoromethyl)-1H-1,2,4-triazol-3-yl]sulfanyl]bicyclo[3.1.0] hexane-2,6-dicarboxylic acid hydrochloride]	92.1			
C[C@H](N)C(=O)N[C@@]1(C(=O)O)C[C@@H](Sc2nnc(C(F)(F)F)[nH]2)[C@H]2[C@H](C(=O)O)[C@H]21 [Example 16, (1R,2S,4R,5R,6R)-2-[[(2S)-2-Aminopropanoyl]amino-4-[[5-(trifluoromethyl)-1H-1,2,4-triazol-3-yl]thio]bicyclo[3.1.0]hexane-2,6-dicarboxylic acid hydrochloride]		53.9		
NCC(=O)O [Glycine, reference compound]				GlySar uptake inhibition, mean values ± standard deviation (controls) (PepT1): 10.1±9.5%

More lines, main results first:

Emax (human mGlu2 receptor) [%]	inhibition at 5000 µM (PepT1) [%]	SMILES	ED50 [1] [mg/kg]	further results
	46.7	NCC(=O)N[C@@]1(C(=O)O)C[C@H](Sc2nnc[nH]2)[C@H]2[C@H](C(=O)O)[C@H]21 [Example 22, (1R,2S,4S,5R,6R)-2-[(-2-Aminoacetyl)amino]-4-(4H-1,2,4-triazol-3-ylsulfanyl)bicyclo[3.1.0]hexane-2,6-dicarboxylic acid hydrochloride]		
	47.1	CC(C)C[C@H](N)C(=O)N[C@@]1(C(=O)O)C[C@H](Sc2nnc[nH]2)[C@H]2[C@H](C(=O)O)[C@H]21 [Example 24, (1R,2S,4S,5R,6R)-2-(L-leucylamino)-4-(4H-1,2,4-triazol-3-ylsulfanyl)bicyclo [3.1.0]hexane-2,6-dicarboxylic acid hydrochloride]		
